Experimental data from US20120115232A1, “METHOD FOR INDUCING DEGRADATION OF PROTEIN IN MAMMALIAN CELL” (OSAKA UNIVERSITY, priority 2009, published 2012).

Test system: GFP-aid-NLS marker protein
Test: Induction of degradation of labeled protein of interest in transiently transfected COS1 cells, Western blot with GFP antibody
Type: cell-based, monkey
Conditions: 500 μM auxin, 5 hours
Procedure: The EGFP segment of pIRES2-AcGFP1 (Clontech) was removed by treatment with restriction enzymes BstXI and NotI, into which EGFP-IAA17, which was amplified using pMK42 (an EGFP-IAA17-containing plasmid produced by the inventors) as a template and the following primer set, was inserted (the amplified sequence is shown in SEQ ID NO: 13). By this process, EGFP-IAA17 was cloned downstream of IRES. The resulting plasmid was treated with restriction enzymes XhoI and SmaI, and into this site, rice TIR1 tagged with 9Myc at its C terminus was inserted. By this process, the rice TIR1 was inserted between a CMV promoter and IRES, and the resulting plasmid was referred to as pNHK60. The pNHK60 was transferred into the proliferating COS1, CHO, and NIH3T3 cells using Lipofectamine 2000 (Invitrogen) for transient expression. The HEK293 cell shown in FIG. 4 is a HEK293 strain stably expressing pNHK60, which was obtained by transfer of the pNHK60 under the aforementioned conditions and subsequent selection by the addition of G418 to a medium.
In the experiment of transient expression, the cells were cultured in a medium to which 500 μM IAA or NAA was added, and after five hours, the cells were collected, from which extracts were prepared. […] The factors were detected by Western blotting.
The protein thus extracted was separated by SDS-PAGE and then transferred to a nitrocellulose membrane. Using an anti-Myc antibody (mouse monoclonal 9E10) and an anti-GFP antibody (mouse monoclonal 9E1), each kind of protein was detected by Western blotting. […] For migration control, total extracted proteins were detected by Ponceau staining. Since the […] TIR1 gene is tagged with 9Myc, the TIR1 protein can be detected by Western blotting with the aforementioned Myc antibody. Also, EGFP, which is a protein to be degraded in the complex protein, can be detected by Western blotting with the GFP antibody.
In a similar manner to Example 1, the induction of degradation of a labeled protein of interest was compared between the case in which an expression vector having the TIR1 family protein gene from rice linked between a virus promoter and IRES and the chimeric gene expressing a labeled protein of interest linked downstream thereof was transferred (corresponding to A in FIG. 5) and the case in which an expression vector having the chimeric gene expressing a labeled protein of interest linked between a virus promoter and IRES and the TIR1 family protein gene from rice linked downstream thereof was transferred (corresponding to B in FIG. 5). […] After extraction of a protein sample, the expressed GFP-aid-NLS marker protein was detected by Western blotting using the GFP antibody.

[1] = DNA construct A (rice TIR1 between virus promoter and IRES, chimeric gene downstream)
[2] = DNA construct B (chimeric gene between virus promoter and IRES, rice TIR1 downstream)

For `O=C(O)Cc1c[nH]c2ccccc12` [IAA, indole-3-acetic acid], the “depletion of expressed GFP-aid-NLS marker protein” value (from here on “depletion”) [1] was “efficiently depleted” and the “depletion” value [2] was “no outstanding depletion”.
In the case of `O=C(O)Cc1cccc2ccccc12` [NAA, 1-naphthaleneacetic acid], the “depletion” value [1] is reported as “efficiently depleted” and the “depletion” value [2] is reported as “no outstanding depletion”.
